Where two headings read alike, the source gives them in different places.
Key:
[1] = molecular target: Mycobacterium tuberculosis PncA (MtPncA) (Mycobacterium tuberculosis, UniProt I6XD65)
[2] = molecular target: T1, PncA (Mycobacterium tuberculosis, UniProt I6XD65); type: biochemical
[3] = molecular target: T1, PncA; assay: biochemical; type: biochemical
[4] = molecular target: T1, PncA; assay: Inactivation of PncA by iodoacetamide; type: biochemical; settings: concentration and pH dependent loss of activity
[5] = test system: NC(=O)c1cnccn1; assay: purified protein, by the assay type; settings: pH 7.5; 25.0 °C

T1 sequence (I6XD65 whole entry): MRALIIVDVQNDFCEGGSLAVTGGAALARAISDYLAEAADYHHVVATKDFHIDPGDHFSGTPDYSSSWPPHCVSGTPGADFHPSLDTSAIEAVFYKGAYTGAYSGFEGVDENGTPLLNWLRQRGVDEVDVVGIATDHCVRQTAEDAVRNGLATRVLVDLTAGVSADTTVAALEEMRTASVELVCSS
Mycobacterium tuberculosis PncA (MtPncA), sequence (I6XD65 whole entry): as above

NC(=O)c1ccc(N)nc1 [6-aminonicotinamide]
enzymatic activity with the compound as substrate [1]: did not observe any enzymatic activity

N#Cc1cnccn1 [pyrazinecarbonitrile]
enzymatic activity with the compound as substrate [1]: Neither compound is a substrate | kinact/KI [2]: 975 M⁻¹ s⁻¹ | mode of inhibition [2]: irreversible inactivator | kinact ([2]; pH 7.5): Kinact = 0.06 ± 0.01 sec^−1 Ki = 61 ± 3 μM | KI (inactivation) ([2]; read-out: Ki (inactivation), pH 7.5): 61 µM

NC(=O)c1ccccc1 [benzamide]
enzymatic activity with the compound as substrate [1]: did not observe any enzymatic activity

N#Cc1cccnc1 [3-pyridinecarbonitrile]
enzymatic activity with the compound as substrate [1]: Neither compound is a substrate | mode of inhibition [3]: reversible, competitive inhibitor | Ki ([3]; Ki, reversible, competitive inhibitor): ~100 µM

NC(=O)CI [iodoacetamide]
inactivation of PncA [4]: inactivator of PncA

O=C(O)CN(CCN(CC(=O)O)CC(=O)O)CC(=O)O [EDTA, ethylenediaminetetraacetic acid]
effect of addition on MtPncA activity [1]: neither the addition of 5 mM EDTA, nor reported inhibitory metals (Zn^+2 for MtPncA) resulted in any decrease in activity

O=Cc1cccnc1 [3-pyridine carboxaldehyde]
mode of inhibition [3]: competitive inhibitor

(Mycobacterium tuberculosis H37Rv)
Km [5]: 300 ± 40 µM | kcat [5]: 3.8 ± 0.1 s⁻¹ | kcat/Km [5]: 13000 M⁻¹ s⁻¹

From article PMC3029496 (Biochemistry, 2010)
